{
  "source": "paper PMC9068772",
  "about": "“Discovery of first-in-class nanomolar inhibitors of heptosyltransferase I reveals a new aminoglycoside target and potential alternative mechanism of action” (Scientific Reports, 2022)",
  "key": {"[1]": {"target": "T1, Heptosyltransferase I (HepI) WT (Escherichia coli, UniProt P24173)", "T1 construct": "made in house; host or cells: E. coli One Shot BL-21-AI", "experiment": "HepI inhibition, ADP/NADH coupled assay (wild type)", "format": "biochemical, E. coli K12", "conditions": "for kcat: HepI WT in presence of inhibitor; for Ki: 10 μM ODLA, inhibitor varied", "protocol": "As previously reported[11],[14],[15], an ADP/NADH coupled assay was used to monitor HepI activity by monitoring the absorbance change at 340 nm at 37 °C on a Cary Bio 100 UV–Vis Spectrometer. Under normal conditions, the assay buffer was composed of 50 mM HEPES, 50 mM KCl, 10 mM MgCl2, pH 7.5. The coupled enzyme reaction additionally contained 100 μM phosphoenolpyruvate, 100 μM NADH, 100 μM dithiothreitol (DTT) and 0.05 U/μL of both pyruvate kinase and lactate dehydrogenase. 100 μM ADPH was used when ODLA concentration was varied and 100 μM ODLA was used when ADPH was varied. Once a stable baseline was established (~ 5 min), the reaction was initiated by addition of HepI to a final concentration of 50 nM or 100 nM (for high and lower substrate concentrations respectively) and all reported reaction rates are after background subtraction. When running 12 samples at once, plastic cuvette stirs and a repeat pipettor was used to inject 200 μL enzyme. Inhibition of HepI was monitored using the same ADP/NADH coupled assay, all conditions of the assay were the same as previously described unless otherwise stated. Ki values for each of the compounds were determined by varying compound final concentration from 100 μm to 10 nm, and a final concentration of 10 μM ODLA. Competition assays against ADPH were done with excess ODLA (100 μM) and varying ADPH from 2–0.25 μM. Competition assays against ODLA were done with excess ADPH (100 μM) and varying ODLA from 2–0.25 μM. Reactions were started with addition of enzyme and inhibitor was varied from 30–0.01 μM. Kinetics were fit to Lineweaver-Burke (Eq. 1), competitive (Eq. 2), non-competitive (Eq. 3), mixed (Eq. 4), Dixon (Eq. 5), or Cornish-Bowden (Eq. 6) models. All fitting and plotting was done through MATLAB R2018A.1 1/V1/[S]=KM/Vmax[S]+1/Vmax 2 V[S]=Vmax[S]/KM1+[I]/Ki+[S] 3 V[S]=Vmax[S]/1+([I]/Ki)/KM+[S] 4 V[S]=Vmax[S]/KM(1+[I]/Ki)+[S](1+[I]/αKi) 5 1/V[I]=KM1+I/Ki+[S]1+I/αKi/Vmax[S] 6 [S]/V[I]=KM1+I/Ki+[S]1+I/αKi/Vmax"}, "HepI": {"target": "T2, HepI (Escherichia coli, UniProt P24173)", "T2 construct": "made in house; host or cells: E. coli One Shot BL-21-AI", "experiment": "Circular dichroism thermal melt of HepI", "format": "binding, E. coli K12", "conditions": "CD melt, HepI plus ligand alone", "protocol": "Circular dichroism melt experiments were performed in a Jasco J-810 spectropolarimeter in Starna 21-Q-2 cells (minimum volume 400 µL) sealed with Teflon tape to prevent evaporation. Parameters include 3 accumulations of data collected between 195–275 nm as a function of temperature (10–95 °C with 5° increments) at a ramp rate of 2°/min and a scanning rate of 50 nm/min. Samples were prepared by diluting a mixture of 5 μM HepI and some combination of 250 μM substrate/product and/or 100 μM inhibitor in a buffer of 10 mM Tris–HCl and 100 mM KCl (pH = 7.5). CD data was analyzed via in house script written in MATLAB R2018A that average a set of triplicate data, normalizes to a percent unfolded (assuming the protein is fully folded at 5 °C) at 222 nm as a function of temperature and fits to a sigmoid curve to determine the melt temperature (TM)."}},
  "note": "“And” between values parts separate entries of the source, which are not always exact repeats. Equal entries are not always repeated.",
  "data": [
    {"compound": "NCC[C@H](O)C(=O)N[C@@H]1C[C@H](N)[C@@H](O[C@H]2O[C@H](CN)[C@@H](O)[C@H](O)[C@H]2O)[C@H](O)[C@H]1O[C@H]1O[C@H](CO)[C@@H](O)[C@H](N)[C@H]1O", "note": "[Amikacin]", "values": [
      {"measurement": "kcat", "setting": "[1]", "result": "0.138 ± 0.001", "unit": "s⁻¹"},
      {"measurement": "Ki", "setting": "[1]; HepI WT", "result": "4.3 µM and 4.26 µM"}
    ]},
    {"compound": "Nc1ncnc2c1ncn2[C@@H]1O[C@H](COP(=O)(O)OP(=O)(O)O[C@@H]2O[C@H]([C@@H](O)CO)[C@@H](O)[C@H](O)[C@@H]2O)[C@@H](O)[C@H]1O", "note": "[ADPH, ADP-L-glycero-β-D-manno-heptose]", "values": [
      {"measurement": "Extent of unfolding of HepI with ligand", "setting": "HepI", "result": "~ 100%"},
      {"measurement": "Melting temperature (Tm) of HepI with ligand", "setting": "HepI", "result": "does not induce any changes in the melting temperature"}
    ]},
    {"compound": "NC[C@H]1O[C@H](O[C@H]2[C@H](O)[C@@H](O[C@H]3O[C@H](CO)[C@@H](O)[C@H](N)[C@H]3O)[C@H](N)C[C@@H]2N)[C@H](N)[C@@H](O)[C@@H]1O", "note": "[Kanamycin B]", "values": [
      {"measurement": "kcat", "setting": "[1]", "result": "0.149 ± 0.007", "unit": "s⁻¹"},
      {"measurement": "Ki", "setting": "[1]; HepI WT", "result": "0.99 ± 0.119", "unit": "µM"},
      {"measurement": "Type of inhibition with ODLA", "setting": "[1]; HepI WT, excess ADPH, ODLA varied, Lineweaver–Burk, Dixon, Cornish-Bowden", "result": "Competitive"}
    ]},
    {"compound": "Nc1ncnc2c1ncn2[C@@H]1O[C@H](COP(=O)(O)OP(=O)(O)O)[C@@H](O)[C@H]1O", "note": "[ADP, Adenosine disphosphate]", "values": [
      {"measurement": "Melting temperature (Tm) of HepI with ligand", "setting": "HepI", "result": "melts similarly to HepI with ADPH"}
    ]}
  ]
}
